Source: publication PMC5286520 (Scientific Reports, 2017)

Tests used:
[1] = target: V1aR; design: method as in earlier work; settings: previous studies, ref [32][43], cited from earlier work
[2] = tested on: human myometrium; assay: Ex vivo human myometrial contractility, vasopressin-augmented (0.5 nM); settings: vasopressin 0.5 nM
[3] = target: inotocin R (L. niger); assay: Radioligand displacement of [3H] inotocin, inotocin receptor from L. niger; design: species or system Lasius niger; settings: saturation binding experiments
Method: (§1) Chinese Hamster Ovary cells (CHO) were cultured in Ham’s F12 media supplemented with 10% fetal bovine serum (FBS), 1% PenStrep (all from Sigma-Aldrich, Munich, Germany) and grown in a humidified atmosphere of 37 °C, 5% CO2 and passaged on average twice per week. CHO cells were used for expression of inotocin receptor (L. niger, T. castaneum). Cell transfections were carried out with 10 μg of plasmid using Lipofectamine LTX (Life Technologies, Invitrogen, Carlsbad, USA) for invertebrate receptors. For the expression of human OTR, V1aR, V1bR and V2R, HEK293 cells were transfected using jetPRIME (Polyplus Transfections, Illkirch-Graffenstaden, France)[35]. Cells were maintained in DMEM (GE Healthcare Hy Clone™, Logan, USA) supplemented with 10% FBS and 1% PenStrep.
(§2) Unbound ligands were washed off (Skatron Cell Harvester). […] Bindings of [^3H] AVP and [^3H] […] Bindings of [^3H] inotocin to membranes (10 μg) expressing INTR from L. niger, or [^3H] inotocin to membranes (10 μg) expressing INTR from T. castaneum, respectively, were assayed for displacement with an excess of inotocin (10^−11 to 10^−5 M) (n ≥ 3, except where otherwise stated). […] Specific binding was calculated by subtracting the non-specific binding from the total binding. […] Inhibition constants (Ki) were calculated from IC50 using the method by Cheng and Prusoff[65].

[4] = target: inotocin R (T. castaneum); assay: Radioligand displacement of [3H] inotocin, inotocin receptor from T. castaneum; design: species or system Tribolium castaneum; settings: saturation binding experiments
Method: as §1, §2

[5] = type: in vitro ADME, human
Method: Serum stability was tested as described previously. Briefly, serum was obtained prepared from human blood (self-donor), allowed to coagulate for 2 h at 23 °C and centrifuged at 12,000 × g for 10 min. Peptides (100 μM) were incubated in serum for 2, 4, 6, 8, 10 and 24 h at 37 °C. To evaluate peptide stability, aliquots ([…]) were analysed via RP-HPLC (UltiMate 3000, Thermo Scientific Dionex, Vienna, Austria) on a C18 column (Phenomenex Kinetex, Aschaffenburg, Germany) with a 3% gradient using 0.1% (v/v) TFA and 90/10/0.1% (v/v/v) acetonitrile/H2O/TFA as eluents. Half-life (t1/2) of peptides was calculated using non-linear regression analysis using Graph Pad Prism.
Supplementary Fig. 5. Human serum stability of the inotocin D-analogue. [D-Arg 8 ]-inotocin […]
serum and their stability monitored via HPLC over a time course of 2, 4, 6, 8, 10 and 24 h. Melittin, a haemolytic peptide from the bee venom was used as a positive control f or peptide degradation.
Area under the curves of samples was determined and correlated to the negative control analyte, which was dissolved in 0.1% TFA; thus they were not subject to degradation and were assumed therefore as 100%. Peptide stability was expressed in percentage of peptide remaining.
(1 picture or pasted object on this page, not shown here)

[6] = 100 nM, relative to control activity

## [D-Arg8]-vasopressin
[1]; read-out: binding affinity
  Ki: 781 nM
[1]
  difference in affinity of peptide pair vasopressin/[D-Arg8]-vasopressin: ~ 200 fold

## COc1ccc(S(=O)(=O)N2c3ccc(Cl)cc3[C@](O)(c3ccccc3Cl)[C@@H]2C(=O)N2CCC[C@H]2C(N)=O)cc1OC [SR49059, relcovaptan]
[2]; [6]
  reduction of area-under-the-curve (AUC): 72.1%
  reduction of contraction amplitude: 54.8%
[2]; tested 1-100 nM
  concentration at which decrease in area-under-the-curve became significant: 30 nM
  concentration at which decrease in contraction amplitude became significant: 30 nM

## [^3H] inotocin: tritiated inotocin radioligand, C[4,5-3H]LITNCPGR-NH2 as printed (tritium label; N-terminal Cys; C-terminal amide)
[3]
  Kd: 0.9 nM
[4]
  Kd: 2.7 nM

## NC(=O)CC[C@@H]1NC(=O)[C@H](Cc2ccccc2)NC(=O)[C@H](Cc2ccc(O)cc2)NC(=O)[C@@H](N)CSSC[C@@H](C(=O)N2CCC[C@H]2C(=O)N[C@@H](CCCN=C(N)N)C(=O)NCC(N)=O)NC(=O)[C@H](CC(N)=O)NC1=O [vasopressin, arginine-vasopressin]
[5]; human serum, 37 °C, 100 μM peptide, read-out: half-life t½ (converted)
  half-life: 1 h
[5]; within 24 h
  degradation in human serum: fully degraded
